Results on 27 molecules are retold here after ChEMBL document CHEMBL4138060, “Development of new scaffolds as reversible tissue transglutaminase inhibitors, with improved potency or resistance to glutathione addition” (Medchemcomm, 2017).

Test [1] is described as follows: Inhibition of guinea pig liver transglutaminase 2. Further details: species or system Cavia porcellus; call rule not given here.
Test [2] addresses T1, Protein-glutamine gamma-glutamyltransferase (Homo sapiens, UniProt P21980).
T1 sequence (P21980 whole entry): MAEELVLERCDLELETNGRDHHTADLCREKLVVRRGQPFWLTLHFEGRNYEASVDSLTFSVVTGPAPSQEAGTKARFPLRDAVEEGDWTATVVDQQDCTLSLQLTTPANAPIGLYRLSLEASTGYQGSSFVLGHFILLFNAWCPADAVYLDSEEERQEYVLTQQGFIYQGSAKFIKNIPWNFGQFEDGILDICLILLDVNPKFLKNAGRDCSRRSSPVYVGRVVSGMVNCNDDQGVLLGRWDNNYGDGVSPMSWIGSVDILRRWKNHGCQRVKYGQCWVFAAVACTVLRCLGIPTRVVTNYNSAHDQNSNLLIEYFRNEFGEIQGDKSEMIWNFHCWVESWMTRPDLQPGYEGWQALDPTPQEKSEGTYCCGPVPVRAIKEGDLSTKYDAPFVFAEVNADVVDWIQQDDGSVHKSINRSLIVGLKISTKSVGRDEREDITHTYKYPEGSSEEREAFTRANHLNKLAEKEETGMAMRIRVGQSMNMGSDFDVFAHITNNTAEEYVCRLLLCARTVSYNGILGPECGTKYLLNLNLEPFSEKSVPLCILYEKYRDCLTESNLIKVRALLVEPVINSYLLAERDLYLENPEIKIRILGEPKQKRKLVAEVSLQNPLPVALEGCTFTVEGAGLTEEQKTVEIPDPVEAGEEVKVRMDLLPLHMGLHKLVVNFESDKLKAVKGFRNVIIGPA
Description: Inhibition of human transglutaminase 2.

Test [3] has as its target T1, Protein-glutamine gamma-glutamyltransferase. As to the kind of experiment: Inhibition of human transglutaminase 2 using N-Cbz-Glu(gamma-p-nitrophenylester)Gly (AL5) substrate measured over 10 mins by UV-visible spectrophotometry. The note with it: for pIC50: read-out: IC50.
The nature of test [4]: Inhibition of guinea pig liver transglutaminase 2 using N-Cbz-Glu(gamma-p-nitrophenylester)Gly (AL5) substrate measured over 10 mins by UV-visible spectrophotometry. Further details: species or system Cavia porcellus.
The target of test [5] is T1, Protein-glutamine gamma-glutamyltransferase. Description: Competitive inhibition of human transglutaminase 2 using N-Cbz-Glu(gamma-p-nitrophenylester)Gly (AL5) substrate measured over 10 mins by UV-visible spectrophotometry based Michaelis-Menten analysis.

pIC50, pKi: −log10 of the molar value.

As for `O=C(/C=C/c1ccc([N+](=O)[O-])cc1)c1cccnc1`, the pIC50 (in general, −log10 of the IC50, conventionally taken in molar units) in test [1] is 4.68.
`O=C(/C=C/c1cccc([N+](=O)[O-])c1)c1cccnc1`: the results for the pIC50 in test [2], in test [3] and in test [1] were 4.71, 4.71 and 5.52, respectively. For the same molecule, the pKi (in general, the Ki on a negative log10 scale, so that one unit is a factor of ten) in test [2] is 5.40.
As for `O=C(/C=C/c1ccc([N+](=O)[O-])cc1)c1cn(Cc2ccc([N+](=O)[O-])cc2)nn1`, in test [4], the pIC50 was 5.68.
For the molecule `O=C(/C=C/c1ccc([N+](=O)[O-])cc1)n1nnc2ccccc21`, the pIC50 in test [1] and in test [4] was 4.13 each time.
`O=C(c1cn(Cc2ccc([N+](=O)[O-])cc2)nn1)c1cn(Cc2cccc([N+](=O)[O-])c2)nn1`: in test [3], the pIC50 was below 4.00.
Still for that read-out and setting: the same measure for `O=C(C#Cc1ccc([N+](=O)[O-])cc1)n1nnc2ccccc21`: 5.59.
Take `CC(C)/C(=C\C(=O)n1nnc2ccccc21)c1ccc([N+](=O)[O-])cc1`: the IC50 entry in test [3] is given as “Not Active”.
Consider `O=[N+]([O-])c1cccc(-c2cc(-c3cccnc3)on2)c1`, for which the IC50 entry in test [3] is “Not Active”.
As to `COc1ccc(Cn2cc(C(=O)c3cn(Cc4ccc([N+](=O)[O-])cc4)nn3)nn2)cc1`, the IC50 entry in test [3] is “Not Active”.
The same measure, in the same setting: the same measure for `O=C(c1cn(Cc2ccc(C(F)(F)F)cc2)nn1)c1cn(Cc2ccc(C(F)(F)F)cc2)nn1`: “Not Active”.
Turning to `O=C(c1cn(Cc2ccc(OC(F)(F)F)cc2)nn1)c1cn(Cc2ccc([N+](=O)[O-])cc2)nn1`, in test [3], the pIC50 is below 4.00.
Consider `O=C(c1cn(Cc2ccc(Br)cc2)nn1)c1cn(Cc2ccc([N+](=O)[O-])cc2)nn1`, for which, in test [3], the IC50 entry is given as “Not Active”.
Take `O=C(c1cc2cc([N+](=O)[O-])ccc2oc1=O)n1nnc2ccccc21`: the pIC50 in test [3] is 3.84.
On to `O=C(c1cn(Cc2ccc([N+](=O)[O-])cc2)nn1)c1cn(Cc2ccccc2[N+](=O)[O-])nn1`, for which the pIC50 in test [3] was 4.19.
Still for that read-out and setting: the same measure for `N#Cc1ccc(Cn2cc(C(=O)c3cn(Cc4ccc([N+](=O)[O-])cc4)nn3)nn2)cc1`: below 4.00.
Molecule `O=C(c1cn(Cc2ccc([N+](=O)[O-])cc2)nn1)c1cn(Cc2ccc([N+](=O)[O-])cc2)nn1` had a pKi in test [5] of 5.00. Moreover, the pIC50 in test [3] was 4.85.
As for `O=C(c1cccnc1)[C@H]1C[C@@H]1c1cccc([N+](=O)[O-])c1`, the pIC50 in test [3] is 3.83.
For `O=C(C#Cc1ccc([N+](=O)[O-])cc1)c1cn(Cc2ccc([N+](=O)[O-])cc2)nn1`, the negative-log Ki (pKi) in test [5] was 6.38. Moreover, in test [3], the pIC50 was 6.10.
Consider `O=C(c1cn(Cc2ccc(F)cc2)nn1)c1cn(Cc2ccc([N+](=O)[O-])cc2)nn1`, for which the IC50 entry in test [3] is on record as “Not Active”.
As to `C/C(=C\C(=O)n1nnc2ccccc21)c1ccc([N+](=O)[O-])cc1`, in test [3], the IC50 result is “Not Active”.
On to `O=C(c1cn(Cc2ccc([N+](=O)[O-])cc2)nn1)c1cn(CC2CCCCC2)nn1`, for which, in test [3], the IC50 result was “Not Active”.
The same measure, in the same setting: the same measure for `O=C(c1cn(Cc2ccccc2)nn1)c1cn(Cc2ccc([N+](=O)[O-])cc2)nn1`: “Not Active”.
Consider `O=[N+]([O-])c1cccc(/C=C/C2(c3cccnc3)CO2)c1` (stereo not drawn), for which the pIC50 in test [3] was 3.82.
Regarding `Cc1ccc(Cn2cc(C(=O)c3cn(Cc4ccc([N+](=O)[O-])cc4)nn3)nn2)cc1`, the IC50 result in test [3] is listed as “Not Active”.
Turning to `O=C(c1cn(Cc2ccc([N+](=O)[O-])cc2)nn1)c1cn(Cc2ccc(C(F)(F)F)cc2)nn1`, the pIC50 in test [3] is 4.59.
For the molecule `CC(C)/C(=C/C(=O)n1nnc2ccccc21)c1ccc([N+](=O)[O-])cc1`, the IC50 result in test [3] was “Not Active”.
As to `O=C(C#Cc1ccc([N+](=O)[O-])cc1)c1cn(Cc2ccccc2)nn1`, the pIC50 in test [3] was 6.21.
